Consider eleven compounds from patent US6414019B1, “Synergistic mixtures of selected amino acids” (Agrogene Ltd., priority 1997, dated 2002).

Values after ≈ are worked out from the molar mass of the structure shown. Values joined by “and” are separate entries in the source; they are usually repeats but may differ in a detail not shown here. Equal entries are not always repeated.

Assay [1] concerns Pseudoperonospora cubensis (resistance to metalaxyl). Particulars: in vivo.
The test system of assay [2] is Peronospora tabacina R strain. The assay is described as follows: Control of downy mildew in tobacco, fungal isolate R (sporulation inhibition). The format is in vivo.
The test system of assay [3] is Peronospora tabacina S strain. The assay can be described thus: Control of downy mildew in tobacco, fungal isolate S (sporulation inhibition). Format: in vivo.
Assay [4] deals with Plasmopara viticola. The conditions noted are these: in vivo.
Setting [5] is: 50 mg/L active ingredient, fungal isolate R, Table 28.
The mark [6] stands for this setting: 16 mg/L active ingredient, fungal isolate R, Table 29.
Where [7] appears, read: 62 mg/L active ingredient, fungal isolate R, Table 29.
[8] abbreviates: 100 mg/L active ingredient, fungal isolate R, Table 30.
The mark [9] stands for this setting: 200 mg/L active ingredient, fungal isolate R, Table 30.
[10] abbreviates: 250 mg/L active ingredient, fungal isolate R, Table 29.
Where [11] appears, read: 400 mg/L active ingredient, fungal isolate R, Table 30.
[12] abbreviates: 0.5 mg/L active ingredient, tobacco, fungal isolate S (Table 31).
The mark [13] stands for this setting: 5 mg/L active ingredient, tobacco, fungal isolate S (Table 31).
[14] abbreviates: 50 mg/L active ingredient, tobacco, fungal isolate S (Table 31).

Regarding `COCC(=O)N(c1c(C)cccc1C)[C@H](C)C(=O)OC` (single isomer, unassigned) [Metalaxyl Single Isomer], in assay [1], the ED90 is 844 µg/mL (≈ 3020 µM); the “Percent Disease Control” value was 0% and 8%.

`CO/C=C(/C(=O)OC)c1ccccc1Oc1cc(Oc2ccccc2C#N)ncn1` [AZOXYSTROBINE, Azoxystrobin]: the “Percent Disease Control” value in assay [2] (5 mg/L active ingredient, fungal isolate R, Table 28) was 81%; in assay [2] (10 mg/L active ingredient, fungal isolate R, Table 28) it was 81%; in assay [2] (25 mg/L active ingredient, fungal isolate R, Table 28), 81%; in assay [2] (setting [5]), 93%; in assay [2] (dose not printed (value stands in the Ratio column), fungal isolate R, Table 28), 13%. Moreover, the ED90 in assay [2] (fungal isolate R, Table 28) worked out at 27 µg/mL (≈ 66.9 µM).

Take `CC(N)CC(=O)O` (stereo not drawn) [BABA, DLβ-amino-butanoic acid]: the “Percent Disease Control” value is on record as 3% in assay [2] (setting [6]); 0% in assay [2] (setting [5]); 27% in assay [2] (setting [7]); 13% in assay [2] (100 mg/L active ingredient, fungal isolate R, Table 28); 37% in assay [2] (setting [8]); 100% in assay [2] (200 mg/L active ingredient, fungal isolate R, Table 28). The “Percent Disease Control” value in assay [2] (setting [9]) was 62%; in assay [2] (setting [10]), 51%; in assay [2] (setting [11]), 100%; in assay [3] (setting [12]), 0%; in assay [3] (setting [13]), 27%; in assay [3] (setting [14]), 59%. Further, the ED90 in assay [3] (in vivo) is 78 µg/mL (≈ 756 µM); in assay [4], 38 µg/mL and 33 µg/mL and 36 µg/mL and 44 µg/mL.

In the case of `CSC(=O)c1cccc2nnsc12` [BION, Acibenzolar-s-methyl], the “Percent Disease Control” value in assay [2] (setting [6]) was 76%; in assay [2] (setting [7]), 76%; in assay [2] (setting [8]), 37%; in assay [2] (setting [9]) it was 50%; in assay [2] (setting [10]), 99%; in assay [2] (setting [11]), 80%. Also, the “Percent Disease Control” value in assay [3] (setting [12]) is 54%; in assay [3] (setting [13]) it was 76%; in assay [3] (setting [14]), 85%. Moreover, the ED90 in assay [2] (fungal isolate R, Table 29) came out at 88 µg/mL (≈ 418 µM); in assay [2] (fungal isolate R, Table 30), 443 µg/mL (≈ 2110 µM); in assay [3] (tobacco, fungal isolate S (Table 31)), 52 µg/mL (≈ 247 µM); in assay [4] it was 6 µg/mL (≈ 28.5 µM).

With `[Cu+2].[OH-].[OH-]` [Cu(OH)2, copper hydroxide], in assay [1], the ED90 came out at 304 µg/mL; the “Percent Disease Control” value was 67% and 77% and 80%.

In the case of `CCNC(=O)NC(=O)/C(C#N)=N/OC` [Cymoxanil], the “Percent Disease Control” value in assay [2] (setting [8]) turned out to be 25%; in assay [2] (setting [9]), 25%; in assay [2] (setting [11]), 62%. Also, in assay [2] (in vivo), the ED90 was determined as 596 µg/mL (≈ 3010 µM).

Turning to `COc1ccc(C(=CC(=O)N2CCOCC2)c2ccc(Cl)cc2)cc1OC` [DMN, DIMETHOMORPH], the “Percent Disease Control” value in assay [1] came out at 32% Control. For the same compound, the ED90 in assay [4] amounted to 19 µg/mL (≈ 49 µM).

`O=C1c2ccccc2C(=O)N1SC(Cl)(Cl)Cl` [FOLPET, Folpet] yielded an ED90 in assay [1] of 403 µg/mL (≈ 1360 µM).

As for `Cc1ccc(C(C)NC(=O)[C@@H](NC(=O)OC(C)C)C(C)C)cc1` (stereo partly shown) [Fencaramid], in assay [1], the ED90 came out at 19 µg/mL (≈ 59.3 µM); the “Percent Disease Control” value was 78% and 83% and 95% and 100%.

In the case of `COCC(=O)N(c1c(C)cccc1C)[C@H](C)C(=O)OC` [RIDOMILGOLD], the “Percent Disease Control” value is given as 49% in assay [2] (setting [6]); 37% in assay [2] (setting [7]); 20% in assay [2] (setting [8]); 35% in assay [2] (setting [9]); 58% in assay [2] (setting [10]); 42% in assay [2] (setting [11]). For the same compound, the ED90 is 416 µg/mL (≈ 1490 µM) in assay [2] (fungal isolate R, Table 29) and >1000 µg/mL in assay [2] (fungal isolate R, Table 30).

As for Mancozeb, the ED90 in assay [1] is 315 µg/mL and 167 µg/mL.
